Laboratory results reported in ChEMBL document CHEMBL4385604, “Identification of Pyrrolo[2,3- d]pyrimidine-Based Derivatives as Potent and Orally Effective Fms-like Tyrosine Receptor Kinase 3 (FLT3) Inhibitors for Treating Acute Myelogenous Leukemia” (J Med Chem, 2019).
Activity calls are given as the source filed them. The rule behind the calls is not given here.

How the values were obtained:
[1] = tested on: MV4-11; experiment: Induction of apoptosis in human MV4-11 cells assessed as necrotic cells at 1 nM after 48 hrs by Annexin V/propidium iodide staining based flow cytometry (reference value: 0.06%); assay type: functional
[2] = tested on: RS4-11; experiment: Antiproliferative activity against human RS4:11 cells harboring wild-type FLT3 measured after 72 hrs by MTT assay; assay type: functional, cell-based; conditions: RS4-11, 72 h
[3] = molecular target: Mast/stem cell growth factor receptor Kit (Homo sapiens, UniProt P10721); experiment: Inhibition of recombinant human c-Kit (544 to end residues) using poly(Glu, Tyr) 4:1 as substrate measured after 40 mins in presence of [gamma-33P]-ATP by scintillation counting analysis
Chain of Mast/stem cell growth factor receptor Kit (P10721 whole entry): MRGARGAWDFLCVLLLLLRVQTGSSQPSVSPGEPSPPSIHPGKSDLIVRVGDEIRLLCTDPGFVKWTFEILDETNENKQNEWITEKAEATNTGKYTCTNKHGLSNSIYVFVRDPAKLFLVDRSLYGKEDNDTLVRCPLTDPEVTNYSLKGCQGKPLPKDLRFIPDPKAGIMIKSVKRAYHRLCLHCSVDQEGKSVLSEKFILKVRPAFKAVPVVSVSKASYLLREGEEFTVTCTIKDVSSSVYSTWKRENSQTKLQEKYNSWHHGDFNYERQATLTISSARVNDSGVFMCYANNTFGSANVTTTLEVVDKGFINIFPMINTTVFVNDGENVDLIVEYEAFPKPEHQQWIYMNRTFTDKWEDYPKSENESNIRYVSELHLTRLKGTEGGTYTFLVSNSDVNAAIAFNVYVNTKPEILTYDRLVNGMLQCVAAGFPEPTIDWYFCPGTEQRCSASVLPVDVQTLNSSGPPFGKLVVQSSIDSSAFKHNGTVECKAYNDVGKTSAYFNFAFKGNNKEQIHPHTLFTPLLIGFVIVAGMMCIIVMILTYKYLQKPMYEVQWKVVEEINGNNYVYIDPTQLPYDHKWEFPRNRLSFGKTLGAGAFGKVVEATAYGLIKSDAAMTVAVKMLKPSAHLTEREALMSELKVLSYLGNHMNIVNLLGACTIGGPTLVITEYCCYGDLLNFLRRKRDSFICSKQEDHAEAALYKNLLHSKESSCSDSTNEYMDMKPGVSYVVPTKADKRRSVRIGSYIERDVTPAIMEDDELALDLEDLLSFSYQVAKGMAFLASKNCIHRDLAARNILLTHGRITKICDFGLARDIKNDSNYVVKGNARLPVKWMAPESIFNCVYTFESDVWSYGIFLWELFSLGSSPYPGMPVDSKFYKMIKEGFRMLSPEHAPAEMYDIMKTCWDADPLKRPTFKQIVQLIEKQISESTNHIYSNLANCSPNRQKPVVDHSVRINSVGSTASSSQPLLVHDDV

[4] = tested on: MOLM-13; experiment: Antitumour activity against human MOLM13 cells xenografted in po dosed NOD/SCID mouse assessed as tumour growth inhibition administered daily for 10 days; assay type: functional, organism-based
[5] = tested on: MV4-11; experiment: Induction of apoptosis in human MV4-11 cells assessed as necrotic cells at 10 uM after 48 hrs by Annexin V/propidium iodide staining based flow cytometry (reference value: 0.06%); assay type: functional
[6] = tested on: MV4-11; experiment: Induction of apoptosis in human MV4-11 cells assessed as viable cells at 100 nM after 48 hrs by Annexin V/propidium iodide staining based flow cytometry (reference value: 94.4%); assay type: functional; conditions: MV4-11, 48 h, read-out: Activity
[7] = molecular target: Receptor-type tyrosine-protein kinase FLT3 (Homo sapiens, UniProt P36888, D835Y); experiment: Binding affinity to human partial length FLT3 D835Y mutant (Q580 to Y969 residues) expressed in Escherichia coli after 1 hr by qPCR analysis
[8] = molecular target: Receptor-type tyrosine-protein kinase FLT3 (Homo sapiens, UniProt P36888, ITD); experiment: Binding affinity to human partial length FLT3 ITD mutant expressed in Escherichia coli measured after 1 hr by qPCR analysis
[9] = tested on: MV4-11; experiment: Cell cycle arrest in human MV4-11 cells assessed as accumulation at S phase at 3 nM after 24 hrs by propidium iodide staining-based flow cytometric analysis (reference value: 30.12%); assay type: functional
[10] = tested on: MV4-11; experiment: Induction of apoptosis in human MV4-11 cells assessed as necrotic cells at 100 nM after 48 hrs by Annexin V/propidium iodide staining based flow cytometry (reference value: 0.06%); assay type: functional
[11] = tested on: MOLM-13; experiment: Induction of apoptosis in human MOLM13 cells assessed as viable cells at 10 uM after 48 hrs by Annexin V/propidium iodide staining based flow cytometry (reference value: 88.2%); assay type: functional; conditions: MOLM-13, 48 h, read-out: Activity
[12] = tested on: MV4-11; experiment: Induction of apoptosis in human MV4-11 cells assessed as necrotic cells at 10 nM after 48 hrs by Annexin V/propidium iodide staining based flow cytometry (reference value: 0.06%); assay type: functional
[13] = tested on: MV4-11; experiment: Induction of apoptosis in human MV4-11 cells assessed as early apoptotic cells at 1 nM after 48 hrs by Annexin V/propidium iodide staining based flow cytometry (reference value: 2.76%); assay type: functional
[14] = tested on: MOLM-13; experiment: Induction of apoptosis in human MOLM13 cells after 48 hrs by Annexin V/propidium iodide staining-based flow cytometry; assay type: functional, cell-based
[15] = tested on: MOLM-13; experiment: Induction of apoptosis in human MOLM13 cells assessed as early apoptotic cells at 10 uM after 48 hrs by Annexin V/propidium iodide staining based flow cytometry (reference value: 5.97%); assay type: functional
[16] = tested on: MOLM-13; experiment: Induction of apoptosis in human MOLM13 cells assessed as early apoptotic cells at 100 nM after 48 hrs by Annexin V/propidium iodide staining based flow cytometry (reference value: 5.97%); assay type: functional
[17] = tested on: MV4-11; experiment: Cell cycle arrest in human MV4-11 cells assessed as accumulation at G2/M phase at 1 nM after 24 hrs by propidium iodide staining-based flow cytometric analysis (reference value: 21.12%); assay type: functional
[18] = tested on: MOLM-13; experiment: Induction of apoptosis in human MOLM13 cells assessed as viable cells at 100 nM after 48 hrs by Annexin V/propidium iodide staining based flow cytometry (reference value: 88.2%); assay type: functional; conditions: MOLM-13, 48 h, read-out: Activity
[19] = tested on: MOLM-13; experiment: Induction of apoptosis in human MOLM13 cells assessed as late apoptotic cells at 100 nM after 48 hrs by Annexin V/propidium iodide staining based flow cytometry (reference value: 5.52%); assay type: functional
[20] = organism: Homo sapiens; experiment: Selectivity ratio of IC50 for recombinant human c-Kit (544 to end residues) to IC50 for recombinant human FLT3 (564 to end residues)
[21] = tested on: MV4-11; experiment: Induction of apoptosis in human MV4-11 cells assessed as late apoptotic cells at 1 nM after 48 hrs by Annexin V/propidium iodide staining based flow cytometry (reference value: 2.83%); assay type: functional
[22] = tested on: MV4-11; experiment: Inhibition of MAPK in human MV4-11 cells assessed as ratio of phosphorylated ERK to beta-actin level at 30 nM after 2 hrs by Western blot analysis relative to control; assay type: cell-based
[23] = tested on: Receptor-type tyrosine-protein kinase FLT3 (Homo sapiens), P36888 [UNDEFINED MUTATION]; experiment: Inhibition of FLT3 ITD mutant in human MOLM13 cells assessed as ratio of phosphorylated STAT5 to beta-actin level at 100 nM after 2 hrs by Western blot analysis relative to control; assay type: cell-based
[24] = tested on: MV4-11; experiment: Antitumour activity against human MV4-11 cells xenografted in NOD/SCID mouse assessed as tumour growth inhibition at 10 mg/kg, po qd for 18 days measured on day 24 by caliper method; assay type: functional, organism-based
[25] = tested on: MV4-11; experiment: Inhibition of MAPK in human MV4-11 cells assessed as ratio of phosphorylated ERK to beta-actin level at 100 nM after 2 hrs by Western blot analysis relative to control; assay type: cell-based
[26] = tested on: Receptor-type tyrosine-protein kinase FLT3 (Homo sapiens), P36888 [UNDEFINED MUTATION]; experiment: Inhibition of FLT3 ITD mutant in human MV4-11 cells assessed as ratio of phosphorylated STAT5 to beta-actin level at 30 nM after 2 hrs by Western blot analysis relative to control; assay type: cell-based
[27] = tested on: MV4-11; experiment: Induction of apoptosis in human MV4-11 cells assessed as viable cells at 10 nM after 48 hrs by Annexin V/propidium iodide staining based flow cytometry (reference value: 94.4%); assay type: functional; conditions: MV4-11, 48 h, read-out: Activity
[28] = tested on: MOLM-13; experiment: Induction of apoptosis in human MOLM13 cells assessed as necrotic cells at 10 uM after 48 hrs by Annexin V/propidium iodide staining based flow cytometry (reference value: 0.29%); assay type: functional

C=CCn1cc(-c2ccc(NC(=O)Nc3cc(C(C)(C)C)on3)cc2)c2c(N)ncnc21 gave an Activity [1] of 0.13%, an IC50 [2] greater than 1 µM and an IC50 [3] greater than 0.3 µM. For the same compound, the TGI [4] was “Dose-dependent effect”, the Activity [5] was 2.13% and the viability at 0.1 µM [6] was 75.7%. The Kd [7] was 0.00778 µM, the Kd [8] was 0.0205 µM and the Activity [9] was 8.81%. It also gave an Activity [10] of 0.36%, a viability at 10 µM [11] of 0.48% and an Activity [12] of 0.2%. The Activity [13] was 2.56%, the Activity [14] was “Dose-dependent effect” and the Activity [15] was 0.61%. The Activity [16] was 15.5%, the Activity [17] was 16.55% and the viability at 0.1 µM [18] was 62.8%. It also gave an Activity [19] of 21.5%, a Ratio IC50 [20] greater than 40 and an Activity [21] of 4.62%. The fold change (FC) [22] was 0, the fold change (FC) [23] was 0 and the TGI [24] was “inactive”. The fold change (FC) [25] was 0, the fold change (FC) [26] was 0 and the viability at 0.01 µM [27] was 79.3%. It also gave an Activity [28] of 0.4%.
